Assay results: PMC10379611 (International Journal of Molecular Sciences, 2023)
Where “and” joins values, the source holds several entries; their conditions need not be identical. Equal values may be shown once. Entries after “also recorded” stand apart in the source; their conditions may differ.

Assays:
OATP1B1 = settings: read-out: IC50 of OATP1B1; rosuvastatin transport; cited from earlier work
ABCB1 = ABCB1 (Homo sapiens, UniProt P08183); assay: ABCB1 ATPase activity in Sf9 membrane vesicles; format: biochemical; set-up: purchased Solvo Biotechnology, Budapest; settings: insect cell membrane vesicles
Procedure: (§1) ATPase activity was measured in Sf9 membrane vesicles containing the respective human ABC transporters, as described in our earlier work. For ABCG2, the cholesterol level in the vesicles was increased to the level of mammalian cell membranes to obtain full activity. In brief, membrane vesicles (5 μg protein/sample) were incubated with 3 mM Mg-ATP and various concentrations of test compounds. Background ATPase activity of membranes was determined by applying the general ABC transporter inhibitor sodium orthovanadate (1 mM). Measurements were carried out for 20 min at 37 °C. The amount of phosphate liberated from ATP was detected using a colorimetric method and a VictorX3 plate reader at 660 nm Abs. Reference activators (50 µM verapamil for ABCB1 and 1 µM quercetin for ABCG2) served as positive controls.

ABCG2 = target: T1, ABCG2 (Homo sapiens, UniProt Q9UNQ0); assay: ABCG2 ATPase activity in Sf9 membrane vesicles; format: biochemical; set-up: purchased Solvo Biotechnology, Budapest; settings: insect cell membrane vesicles
T1 sequence (Q9UNQ0 1-655): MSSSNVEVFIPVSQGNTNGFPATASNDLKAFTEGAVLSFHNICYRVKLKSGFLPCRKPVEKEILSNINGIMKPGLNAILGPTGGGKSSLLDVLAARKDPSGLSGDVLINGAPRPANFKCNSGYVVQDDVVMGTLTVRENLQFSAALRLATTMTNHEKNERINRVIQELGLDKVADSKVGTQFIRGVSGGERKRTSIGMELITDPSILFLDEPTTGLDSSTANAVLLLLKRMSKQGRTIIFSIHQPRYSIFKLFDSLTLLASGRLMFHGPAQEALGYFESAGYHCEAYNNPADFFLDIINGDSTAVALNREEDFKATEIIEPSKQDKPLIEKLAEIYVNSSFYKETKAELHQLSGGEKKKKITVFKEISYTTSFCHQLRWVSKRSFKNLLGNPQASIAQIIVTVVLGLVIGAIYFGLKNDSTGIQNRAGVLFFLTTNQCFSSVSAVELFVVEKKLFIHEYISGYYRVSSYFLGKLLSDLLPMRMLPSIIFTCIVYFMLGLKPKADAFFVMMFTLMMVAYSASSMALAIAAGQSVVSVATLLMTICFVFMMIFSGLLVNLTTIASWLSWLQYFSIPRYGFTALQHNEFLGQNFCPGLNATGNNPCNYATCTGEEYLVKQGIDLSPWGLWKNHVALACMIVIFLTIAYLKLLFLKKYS
Procedure: as §1

[1] = cited from earlier work
OATP1B3 = settings: read-out: IC50 for OATP1B3; cited from earlier work

ABCB1, sequence (P08183 whole entry): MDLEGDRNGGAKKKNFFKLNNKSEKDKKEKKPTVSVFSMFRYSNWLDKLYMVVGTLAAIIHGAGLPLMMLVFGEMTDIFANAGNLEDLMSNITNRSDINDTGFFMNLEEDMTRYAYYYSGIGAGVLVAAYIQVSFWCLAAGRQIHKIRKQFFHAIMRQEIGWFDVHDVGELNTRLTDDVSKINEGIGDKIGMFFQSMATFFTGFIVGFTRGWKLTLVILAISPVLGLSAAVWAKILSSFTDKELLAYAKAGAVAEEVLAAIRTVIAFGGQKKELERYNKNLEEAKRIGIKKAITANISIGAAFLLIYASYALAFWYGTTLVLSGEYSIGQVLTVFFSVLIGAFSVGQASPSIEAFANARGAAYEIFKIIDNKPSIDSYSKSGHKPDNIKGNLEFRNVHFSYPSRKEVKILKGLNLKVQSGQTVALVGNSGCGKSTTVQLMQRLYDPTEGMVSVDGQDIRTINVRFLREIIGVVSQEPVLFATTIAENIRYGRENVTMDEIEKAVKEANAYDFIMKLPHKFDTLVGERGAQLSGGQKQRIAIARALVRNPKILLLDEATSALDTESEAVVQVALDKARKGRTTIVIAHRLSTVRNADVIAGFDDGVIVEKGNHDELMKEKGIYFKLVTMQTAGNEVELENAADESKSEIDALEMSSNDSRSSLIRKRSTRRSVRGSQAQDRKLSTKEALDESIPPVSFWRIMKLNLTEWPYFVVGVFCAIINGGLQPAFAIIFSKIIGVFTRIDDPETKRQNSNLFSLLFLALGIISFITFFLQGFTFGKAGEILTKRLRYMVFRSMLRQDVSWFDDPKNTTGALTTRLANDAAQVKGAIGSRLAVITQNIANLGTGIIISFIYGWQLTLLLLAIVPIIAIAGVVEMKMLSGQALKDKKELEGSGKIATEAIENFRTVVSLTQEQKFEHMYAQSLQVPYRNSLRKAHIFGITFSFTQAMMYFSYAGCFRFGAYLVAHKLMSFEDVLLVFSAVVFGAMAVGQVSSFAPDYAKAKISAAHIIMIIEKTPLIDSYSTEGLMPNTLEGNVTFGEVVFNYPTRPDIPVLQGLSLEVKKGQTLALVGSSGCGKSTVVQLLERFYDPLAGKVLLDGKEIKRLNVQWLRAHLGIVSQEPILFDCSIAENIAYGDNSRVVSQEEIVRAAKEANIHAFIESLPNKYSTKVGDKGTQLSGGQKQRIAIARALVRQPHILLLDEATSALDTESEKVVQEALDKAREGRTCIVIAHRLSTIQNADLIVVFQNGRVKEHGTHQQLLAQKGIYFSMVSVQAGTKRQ

Structure (SMILES): CC(C)(C)[C@H](NC(=O)C(F)(F)F)C(=O)N1C[C@H]2[C@@H]([C@H]1C(=O)N[C@H](C#N)C[C@@H]1CCNC1=O)C2(C)C [Nirmatrelvir]
- effect on transport-coupled ATPase activity of ABCB1 (ABCB1): significantly increased; also recorded: stimulated
- effect on ATPase activity of ABCG2 (ABCG2): no such effect
- IC50 (OATP1B3): > 100 µM
